Results published in ChEMBL document CHEMBL1126239, “Quinazoline antifolate thymidylate synthase inhibitors: difluoro-substituted benzene ring analogues” (J Med Chem, 1992).
pIC50: −log10 of the molar value.

How the values were obtained:
L1210 [1] = experiment: The compound was tested in vitro for the inhibition of L1210 cell growth in the presence of thymidine; assay type: functional, Mus musculus; set-up: concentration or dose not given beside the values
L1210 [2] = experiment: The compound was tested in vitro for the inhibition of L1210 cell growth in culture; assay type: functional, cell-based; settings: Mus musculus
Thymidylate synthase = Thymidylate synthase (Mus musculus, UniProt P07607); experiment: Inhibition of thymidylate synthase from L1210 cells; assay type: cell-based
Sequence of Thymidylate synthase (P07607 whole entry): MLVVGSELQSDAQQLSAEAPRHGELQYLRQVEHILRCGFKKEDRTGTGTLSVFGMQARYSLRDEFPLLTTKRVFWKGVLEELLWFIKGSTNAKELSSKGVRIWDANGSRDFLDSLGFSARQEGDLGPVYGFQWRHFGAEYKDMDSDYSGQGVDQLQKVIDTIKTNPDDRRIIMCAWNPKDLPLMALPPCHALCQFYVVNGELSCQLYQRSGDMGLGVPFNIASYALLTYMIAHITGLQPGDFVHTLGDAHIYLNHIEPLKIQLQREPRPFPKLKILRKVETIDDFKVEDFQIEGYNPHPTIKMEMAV

| SMILES | pIC50 (L1210 [2]) | pIC50 (Thymidylate synthase) | Control (L1210 [1]) [%] |
| --- | --- | --- | --- |
| C#CCN(Cc1ccc2nc(C)nc(O)c2c1)c1ccc(C(=O)N[C@@H](CCC(=O)O)C(=O)O)c(F)c1F | 6.55 | 5.77 | 94 |
| C#CCN(Cc1ccc2nc(C)nc(O)c2c1)c1cc(F)c(C(=O)N[C@@H](CCC(=O)O)C(=O)O)cc1F | 7.57 | 6.22 | 95 |
| Cc1nc(O)c2cc(CN(C)c3ccc(C(=O)N[C@@H](CCC(=O)O)C(=O)O)c(F)c3F)ccc2n1 | 6.85 | 6.00 | – |

Now from value to compound, other results behind:

| pIC50 (L1210 [2]) | pIC50 (Thymidylate synthase) | SMILES | Control (L1210 [1]) [%] |
| --- | --- | --- | --- |
| 7.12 | 5.96 | Cc1nc(O)c2cc(CN(C)c3cc(F)c(C(=O)N[C@@H](CCC(=O)O)C(=O)O)cc3F)ccc2n1 | 94 |
| 7.30 | 6.02 | Cc1nc(O)c2cc(CN(C)c3cc(F)c(C(=O)N[C@@H](CCC(=O)O)C(=O)O)c(F)c3)ccc2n1 | 90 |
| 7.21 | 7.10 | C#CCN(Cc1ccc2nc(C)nc(O)c2c1)c1cc(F)c(C(=O)N[C@@H](CCC(=O)O)C(=O)O)c(F)c1 | 93 |
